# Reference: patent publication US11952328B2, “Selective ship inhibitors for treating disease” (THE RESEARCH FOUNDATION FOR THE STATE UNIVERSITY OF NEW YORK, priority 2018, dated 2024)
# Experiments:
# MC-38 = MC-38 viability following in vitro treatment; format: cell-based, mice; details: in vitro 24 h; all concentrations N.S. vs solvent only
# Method: FIG. 7A and FIG. 7B show CT26 (FIG. 7A) and MC-38 (FIG. 7B) viability following in vitro treatment with 3AC for 24 h at indicated doses. Relative viability is expressed as frequency compared to solvent only treated cells. Kill curve summarizes pooled data from three independent experiments using six replicate wells/concentration with mean±SEM indicated. BALB/C mice were challenged with subcutaneous injection of CT26 colon carcinoma cells in the right flank. Mice were treated with either 2 consecutive days of 3AC or vehicle control each week as in FIG. 4A. Tumor size at […] 28 days (FIG. 7C), and tumor weight on day 28 determined after dissection of tumor (FIG. 7E). […] C57BL/6 mice were challenged with subcutaneous injection of MC-38 colon carcinoma cells in the right flank. Mice were treated with either 2 consecutive days of SHIP inhibitor or vehicle control each week as in FIG. 4A. Tumor size at 14, 21 and 25 days (FIG. 7D), and tumor weight (FIG. 7F) on day 25 were determined after dissection of tumor. […] FIG. 7A (n=18 per group. One-way ANOVA with Dunnett's multiple comparisons. 0 μM vs. 20 μM Adjusted p value=0.0463. All other concentrations of SHIP inhibitor compared with solvent only N.S.). FIG. 7B (n=18 per group. One-way ANOVA with Dunnett's multiple comparisons. All concentrations of SHIP inhibitor compared with solvent only N.S.). […]
# NK cell compartment = details: uninterrupted, extended-duration treatment, six days each week; Fernandes et al. 2015; cited from earlier work
compound,measurement,setting,value
"CC(C)CCC[C@@H](C)[C@H]1CC[C@H]2[C@@H]3CCC4C[C@H](N)CC[C@]4(C)[C@H]3CC[C@]12C (stereo partly drawn) [Compound 3AC, 3-α-aminocholestane]",MC-38 viability (direct killing),MC-38,resistant to direct killing
same,NK cell compartment function (acute rejection of MHC-I mismatched BM graft),NK cell compartment,disabled NK cell compartment
